Six compounds from US20260374766A1, “METHODS FOR TREATING CANCER” (Antares Therapeutics, Inc., priority 2022, published 2026) can be followed below.

The test system of assay [1] is H1299 p53 R273H. The assay can be described thus: Cell Proliferation Assay (CellTiter-Glo, CTG), H1299 p53 R273H (NClH1299-inducible p53 R273H). In kind it is cell-based. The note with it: Homo sapiens, NCI-H1299, 120 h, CellTiter-Glo, H1299 p53 R273H, 5 days. Summed up: (§1)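 NClH1299 lines stably transduced with Tet-inducible p53 Y220C or R273H, plus NUGC3, were treated with compound for 5 days at 250-500 cells/well. IC50 derived from CellTiter-Glo luminescent signal after 10 min room-temperature incubation.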
In general terms: Cellular ATP, detected with luciferase, serves as a proxy for viable cell number.

The target of assay [2] is T1, p53 Y220C mutant protein (amino acid residues 94-293) (Homo sapiens, UniProt P04637, Y220C).
T1 construct: p53 Y220C mutant protein (amino acid residues 94-293)
The assay can be described thus: Surface Plasmon Resonance (SPR) assay, Kd_kinetic. The format is binding. The note with it: SPR, kinetic KD, p53 Y220C; read-out: SPR P53 Y220C KD kinetic. Summed up: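 Biacore 8K SPR; 16 or 20 °C; Tris 50 mM pH 7.5, NaCl 100 mM, DTT 1 mM, Brij35 0.01%, Tween-20 0.05%, DMSO 1%. Kd_kinetic by 1:1 fit.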

The target in assay [3] is T1, p53 Y220C mutant protein (amino acid residues 94-293). The assay can be described thus: Thermal Shift Assay (TSA), dTM. The format is binding. The following applies: thermal shift, 100 uM compound; read-out: TSA P53 Y220C dTM (100 uM). Summed up:
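TM is derived by fitting Sypro Orange melt curves (30 °C to 50 °C, 0.03 °C/second) to a Boltzmann two-state model. Beforehand, 5 μM p53 Y220C (94-293) sits with 10 μM or 100 μM compound for 3 hours at 20 °C in HEPES pH7.4 buffer containing 100 mM NaCl and 1% DMSO.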

The test system of assay [4] is H1299 p53 Y220C. The assay can be described thus: Cell Proliferation Assay (CellTiter-Glo, CTG), H1299 p53 Y220C (NClH1299-inducible p53 Y220C). The following applies: Homo sapiens, NCI-H1299, 120 h, CellTiter-Glo, H1299 p53 Y220C, 5 days. The format is cell-based. Summed up:
as §1

Assay [5] has as its system NUGC3 p53 Y220C. The assay can be described thus: Cell Proliferation Assay (CellTiter-Glo, CTG), NUGC3 p53 Y220C. The format is cell-based. The note with it: Homo sapiens, NUGC-3, 120 h, CellTiter-Glo, NUGC3 p53 Y220C, 5 days. Summed up:
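Tet-One inducible p53 Y220C or R273H constructs were stably introduced into NCI-H1299 by lentiviral transduction; NUGC3 was used as is. Cells (250-500 per well) were exposed to compound for 5 days, then CellTiter-Glo was added for 10 min at room temperature and IC50 was calculated from luminescence.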

The target in assay [6] is p53 Y220C (Homo sapiens, UniProt P04637, Y220C). The assay can be described thus: Luciferase Reporter Assay (Luc), p53 response element, NClH1299 cells with inducible p53 Y220C. In kind it is cell-based. The following applies: luciferase reporter, NClH1299 inducible p53 Y220C, 6 hour; for Emax: 10 uM tool compound as positive control; for AC50: read-out: Luc P53 Y220C AC50. In outline:
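Doxycycline (0.5 ug/mL, 24 h) induces the mutant before a 6-hour compound treatment. Reporter activity is then quantified by One-Glo luminescence.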
For orientation: Reporter assays use an easily measured gene product as a stand-in for the process of interest.

As usually defined, the IC50 is the concentration at which inhibition is half-maximal. Low readings indicate inhibition by little substance, high ones a need for much substance. The Kd is a measure of binding affinity in units of concentration. As usually defined, the Emax is the greatest response seen or fitted, relative to the assay's reference. A word on the AC50: it is the midpoint of the concentration-response curve, whichever way the signal moves.

For the compound `COc1cc(S(=O)(=O)C2CC2)ccc1NCC#Cc1nc2c(N[C@@H]3CCN(C)C[C@@H]3F)cccn2c1CC(F)(F)F` [Example 67, (3S,4R)—N-[2-(3-{[4-(cyclopropanesulfonyl)-2-methoxyphenyl]amino}prop-1-yn-1-yl)-3-(2,2,2-trifluoroethyl)imidazo[1,2-a]pyridin-8-yl]-3-fluoro-1-methylpiperidin-4-amine], the IC50 in assay [1] is 5 to 8 µM; in assay [4], less than 750 nM; in assay [5] it was less than 750 nM. Moreover, the Kd in assay [2] is less than 10 nM. Also, the ΔTm at 100 µM in assay [3] was not below 10 °C. The same compound showed a maximal response (Emax) in assay [6] of 70 to 80%. For the same compound, the AC50 in assay [6] was less than 0.75 µM.
`CN1CC[C@@H](Nc2cccn3c(CC(F)(F)F)c(C#CCNc4ccc(S(C)(=O)=O)cc4F)nc23)[C@@H](F)C1` [Example 68, (3S,4R)-3-fluoro-N-(2-{3-[(2-fluoro-4-methanesulfonylphenyl)amino]prop-1-yn-1-yl}-3-(2,2,2-trifluoroethyl)imidazo [1,2-a]pyridin-8-yl)-1-methylpiperidin-4-amine]: the IC50 in assay [1] is not below 10 µM; in assay [4], 1500 to 3000 nM; in assay [5] it was 1500 to 3000 nM. Besides, the Kd in assay [2] was 10 to 100 nM. Further, the ΔTm at 100 µM in assay [3] is 5 to 10 °C. Besides, the Emax in assay [6] lay in the range of 70 to 80%. Moreover, in assay [6], the AC50 is 1.5 to 3 µM.
As to `CN1CC[C@@H](Nc2cccn3c(CC(F)(F)F)c(C#CC(C)(C)O)nc23)[C@@H](F)C1` [Example 69, 4-(8-{[(3S,4R)-3-fluoro-1-methylpiperidin-4-yl]amino}-3-(2,2,2-trifluoroethyl)imidazo[1,2-a]pyridin-2-yl)-2-methylbut-3-yn-2-ol], the IC50 is not below 10 µM in assay [1], more than 3000 nM in assay [4] and more than 3000 nM in assay [5]. In assay [2], the Kd lay within 100 to 1000 nM. For the same compound, the ΔTm at 100 µM in assay [3] fell in the range of 5 to 10 °C. The Emax in assay [6] is less than 70%. Further, in assay [6], the concentration at half-maximal activity (AC50) was more than 3 µM.
With `C[C@@H](O)C#Cc1nc2c(N[C@@H]3CCN(C)C[C@@H]3F)cccn2c1CC(F)(F)F` [Example 70, (2R)-4-(8-{[(3S,4R)-3-fluoro-1-methylpiperidin-4-yl]amino}-3-(2,2,2-trifluoroethyl)imidazo[1,2-a]pyridin-2-yl)but-3-yn-2-ol], the values for the IC50 in assay [1], in assay [4] and in assay [5] were not below 10 µM, more than 3000 nM and more than 3000 nM, respectively. Moreover, the Kd in assay [2] fell in the range of 10 to 100 nM. Moreover, the ΔTm at 100 µM in assay [3] fell in the range of 5 to 10 °C. This compound showed an Emax in assay [6] of less than 70%. For the same compound, in assay [6], the AC50 is more than 3 µM.
As for `C[C@H](O)C#Cc1nc2c(N[C@@H]3CCN(C)C[C@@H]3F)cccn2c1CC(F)(F)F` [Example 71, (2S)-4-(8-{[(3S,4R)-3-fluoro-1-methylpiperidin-4-yl]amino}-3-(2,2,2-trifluoroethyl)imidazo[1,2-a]pyridin-2-yl)but-3-yn-2-ol], the values for the 50% inhibitory concentration (IC50) in assay [1], in assay [4] and in assay [5] were not below 10 µM, more than 3000 nM and more than 3000 nM, respectively. For the same compound, the dissociation constant Kd in assay [2] was 100 to 1000 nM. Further, the ΔTm at 100 µM in assay [3] was 5 to 10 °C. Further, the Emax in assay [6] is less than 70%. Further, the AC50 in assay [6] was more than 3 µM.
Take `CN1CC[C@@H](Nc2cccn3c(CC(F)(F)F)c(C#C[C@@H](O)c4ccccc4)nc23)[C@@H](F)C1` [Example 72, (1S)-3-(8-{[(3S,4R)-3-fluoro-1-methylpiperidin-4-yl]amino}-3-(2,2,2-trifluoroethyl)imidazo[1,2-a]pyridin-2-yl)-1-phenylprop-2-yn-1-ol]: the half-inhibitory concentration (IC50) was less than 5 µM in assay [1], 1500 to 3000 nM in assay [4] and 750 to 1500 nM in assay [5]. For the same compound, the Kd in assay [2] is more than 1000 nM. Besides, in assay [3], the ΔTm at 100 µM fell in the range of 1 to 5 °C. The compound further gave an Emax in assay [6] of less than 70%. Besides, the AC50 in assay [6] is more than 3 µM.
